According to US8242145B2, “Cyclic diaryl ether compounds as antagonists of prostaglandin D2 receptors” (Panmira Pharmaceuticals, LLC, priority 2008, dated 2012):

Legend:
human DP1 receptor = target: T1, human DP1 receptor (Homo sapiens, UniProt Q13258); test: DP1 radioligand binding assay using [3H]BWA868C; conditions: hDP1 binding
T1 construct: tissue Biological Specialty Corporation; host or cells: human platelets, membranes
T1 sequence (Q13258 1-359): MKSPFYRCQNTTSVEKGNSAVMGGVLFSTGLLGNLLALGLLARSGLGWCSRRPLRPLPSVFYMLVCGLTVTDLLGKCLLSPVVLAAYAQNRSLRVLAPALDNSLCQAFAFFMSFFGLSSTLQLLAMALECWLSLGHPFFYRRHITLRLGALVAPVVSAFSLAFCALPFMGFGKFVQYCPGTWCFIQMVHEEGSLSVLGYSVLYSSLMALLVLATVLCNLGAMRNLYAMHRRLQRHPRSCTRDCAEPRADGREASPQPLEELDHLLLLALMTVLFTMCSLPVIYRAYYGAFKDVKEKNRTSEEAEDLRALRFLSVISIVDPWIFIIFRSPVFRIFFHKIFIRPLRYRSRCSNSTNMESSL
Protocol: The ability of a compound to bind to the human DP1 receptor was evaluated via a radioligand membrane binding assay using the DP1 selective synthetic ligand [^3H]BW A868C. Packed human platelets (Biological Specialty Corporation), were resuspended in 6 volumes of Hepes/HBSS buffer (10 mM Hepes, 1 mM DTT in Hanks Balanced Salt Solution (HBSS)), lysed and centrifuged at 75,000×g to pellet the membranes. Membranes were resuspended in Hepes/HBSS buffer to approximately 12 mg protein/ml. Membranes (20 μg protein/well) are incubated in 96-well plates with 2 nM [^3H]BWA868C and test compound in Assay Buffer (50 mM Hepes, 10 mM MnCl2, 1 mM EDTA, plus or minus 0.2% human serum albumin, pH 7.4) for 60 minutes at room temperature. The reactions are terminated by rapid filtration through Whatman GF/C glass fibre filter plates. The filter plates were pre-soaked in 0.33% polethylenimine for 30 minutes at room temperature then washed in Wash Buffer (50 mM Hepes, 0.5 M NaCl pH 7.4) prior to harvesting. After harvesting, the filter plates are washed 3 times with 1 ml cold Wash Buffer then dried. Scintillant is then added to the plates and the radioactivity retained on the filters is determined on a Packard TopCount (Perkin Elmer). Specific binding is determined as total radioactive binding minus non-specific binding in the presence of 10 μM BW A868C. IC50s were determined using GraphPad prism analysis of drug titration curves.

human DP2 receptor = target: T2, human DP2 receptor (Homo sapiens, UniProt Q9Y5Y4); test: DP2/CRTH2 radioligand binding assay using [3H]PGD2; conditions: hDP2 (CRTH2) binding assay
T2 construct: expressed in transfected cells
T2 sequence (Q9Y5Y4 1-395): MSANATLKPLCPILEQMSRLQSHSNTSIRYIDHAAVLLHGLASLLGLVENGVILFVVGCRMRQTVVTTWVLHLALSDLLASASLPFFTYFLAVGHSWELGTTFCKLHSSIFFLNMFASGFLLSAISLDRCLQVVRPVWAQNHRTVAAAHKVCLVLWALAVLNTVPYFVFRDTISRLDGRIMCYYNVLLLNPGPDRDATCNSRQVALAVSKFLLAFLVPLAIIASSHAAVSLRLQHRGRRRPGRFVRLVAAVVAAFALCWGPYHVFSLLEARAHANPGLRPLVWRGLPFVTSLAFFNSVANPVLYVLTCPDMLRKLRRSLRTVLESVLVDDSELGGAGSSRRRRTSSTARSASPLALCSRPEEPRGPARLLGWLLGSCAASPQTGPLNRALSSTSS
Protocol: The ability of a compound to bind to the human DP2 receptor is assessed via a radioligand binding assay using [^3H]PGD2. HEK293 cells stably expressing recombinant human DP2 are resuspended in 10 mM Hepes, 7.4 containing 1 mM DTT, lysed and centrifuged at 75,000×g to pellet the membranes. The membranes are resuspended in 10 mM Hepes, 7.4 containing 1 mM DTT and 10% glycerol to approximately 5 mg protein/ml. Membranes (2-10 μg protein/well) are incubated in 96-well plates with 1 nM [^3H]PGD2 and test compound in Assay Buffer (50 mM Hepes, 10 mM MnCl2, 1 mM EDTA, plus or minus 0.2% human serum albumin, pH 7.4) for 60 minutes at room temperature. The reactions are terminated by rapid filtration through Whatman GF/C glass fibre filter plates. The filter plates were pre-soaked in 0.33% polythylenimine for 30 minutes at room temperature then washed in Wash Buffer (50 mM Hepes, 0.5 M NaCl pH 7.4) prior to harvesting. After harvesting, the filter plates are washed 3 times with 1 ml cold Wash Buffer then dried. Scintillant is then added to the plates and the radioactivity retained on the filters is determined on a Packard TopCount (Perkin Elmer). Specific binding is determined as total radioactive binding minus non-specific binding in the presence of 10 μM PGD2. IC50s were determined using GraphPad prism analysis of drug titration curves.

Compound | IC50 (human DP1 receptor) [µM] | IC50 (human DP2 receptor) [µM]
O=C(O)Cc1cccc(Oc2ccccc2CN2CCOC2=O)c1 [Compound 1-1, {3-[2-(2-Oxo-oxazolidin-3-ylmethyl)-phenoxy]-phenyl}-acetic acid] | > 1 | > 1
O=C(O)Cc1cccc(Oc2ccc(F)cc2CN2CCOC2=O)c1 [Compound 1-2, {3-[4-Fluoro-2-(2-oxo-oxazolidin-3-ylmethyl)-phenoxy]-phenyl}-acetic acid] | > 1 | > 1
Cc1ccc(Oc2cccc(CC(=O)O)c2)c(CN2CCOC2=O)c1 [Compound 1-4, {3-[4-Methyl-2-(2-oxo-oxazolidin-3-ylmethyl)-phenoxy]-phenyl}-acetic acid] | > 1 | 0.3 to 1
CC(C)(C(=O)O)c1cccc(Oc2ccc(C(F)(F)F)cc2CN2CCOC2=O)c1 [Compound 1-11, 2-Methyl-2-{3-[2-(2-oxo-oxazolidin-3-ylmethyl)-4-trifluoromethyl-phenoxy]-phenyl}-propionic acid] | > 1 | > 1
O=C(O)Cc1cc(Oc2ccc(C(F)(F)F)cc2CN2CCOC2=O)ccc1Br [Compound 1-12, {2-Bromo-5-[2-(2-oxo-oxazolidin-3-ylmethyl)-4-trifluoromethyl-phenoxy]-phenyl}-acetic acid] | – | > 1
C[C@H]1[C@@H](c2ccccc2)OC(=O)N1Cc1cc(-c2ccccn2)ccc1Oc1cccc(CC(=O)O)c1 [Compound 1-19, {3-[2-((4S,5R)-4-Methyl-2-oxo-5-phenyl-oxazolidin-3-ylmethyl)-4-pyridin-2-yl-phenoxy]-phenyl}-acetic acid] | < 0.3 | < 0.3
C[C@H]1[C@@H](c2ccccc2)OC(=O)N1Cc1cc(-c2cnc(N)cn2)ccc1Oc1cccc(CC(=O)O)c1 [Compound 1-20, {3-[4-(5-Amino-pyrazin-2-yl)-2-((4S,5R)-4-methyl-2-oxo-5-phenyl-oxazolidin-3-ylmethyl)-phenoxy]-phenyl}-acetic acid] | < 0.3 | 0.3 to 1
C[C@H]1[C@@H](c2ccccc2)OC(=O)N1Cc1cc(-c2cnn(C)c2)ccc1Oc1cccc(CC(=O)O)c1 [Compound 1-21, {3-[2-((4S,5R)-4-Methyl-2-oxo-5-phenyl-oxazolidin-3-ylmethyl)-4-(1-methyl-1H-pyrazol-4-yl)-phenoxy]-phenyl}-acetic acid] | < 0.3 | < 0.3
Cc1ncc(-c2ccc(Oc3cccc(CC(=O)O)c3)c(CN3C(=O)O[C@H](c4ccccc4)[C@@H]3C)c2)[nH]1 [Compound 1-23, {3-[4-(2-Methyl-3H-imidazol-4-yl)-2-((4S,5R)-4-methyl-2-oxo-5-phenyl-oxazolidin-3-ylmethyl)-phenoxy]-phenyl}-acetic acid] | > 1 | < 0.3
C[C@H]1[C@@H](c2ccccc2)OC(=O)N1Cc1cc(-c2ccc(C(N)=O)cn2)ccc1Oc1cccc(CC(=O)O)c1 [Compound 1-68, {3-[4-(5-Carbamoyl-pyridin-2-yl)-2-((4S,5R)-4-methyl-2-oxo-5-phenyl-oxazolidin-3-ylmethyl)-phenoxy]-phenyl}-acetic acid] | < 0.3 | 0.3 to 1
C[C@H]1[C@@H](c2ccccc2)OC(=O)N1Cc1cc(-c2ccc(N)cn2)ccc1Oc1cccc(CC(=O)O)c1 [Compound 1-69, {3-[4-(5-Amino-pyridin-2-yl)-2-((4S,5R)-4-methyl-2-oxo-5-phenyl-oxazolidin-3-ylmethyl)-phenoxy]-phenyl}-acetic acid] | < 0.3 | < 0.3
Cc1nc(-c2ccc(Oc3cccc(CC(=O)O)c3)c(CN3C(=O)O[C@H](c4ccccc4)[C@@H]3C)c2)cn1C [Compound 1-70, {3-[4-(1,2-Dimethyl-1H-imidazol-4-yl)-2-((4S,5R)-4-methyl-2-oxo-5-phenyl-oxazolidin-3-ylmethyl)-phenoxy]-phenyl}-acetic acid] | > 1 | < 0.3
Cc1ncc(-c2ccc(Oc3cccc(CC(=O)O)c3)c(CN3C(=O)O[C@H](c4ccccc4)[C@@H]3C)c2)n1C [Compound 1-71, {3-[4-(2,3-Dimethyl-3H-imidazol-4-yl)-2-((4S,5R)-4-methyl-2-oxo-5-phenyl-oxazolidin-3-ylmethyl)-phenoxy]-phenyl}-acetic acid] | 0.3 to 1 | 0.3 to 1
COc1ccc(CC(=O)O)cc1Oc1ccc(NC(=O)C(C)(C)C)cc1CN1CCOC1=O [Compound 1-100, {3-[4-(2,2-Dimethyl-propionylamino)-2-(2-oxo-oxazolidin-3-ylmethyl)-phenoxy]-4-methoxy-phenyl}-acetic acid] | – | < 0.3
COc1ccc(CC(=O)O)cc1Oc1ccc(NC(=O)Cc2ccccc2)cc1CN1CCOC1=O [Compound 1-101, {4-Methoxy-3-[2-(2-oxo-oxazolidin-3-ylmethyl)-4-phenylacetylamino-phenoxy]-phenyl}-acetic acid] | – | < 0.3
COc1ccc(CC(=O)O)cc1Oc1ccc(NC(=O)C2CCCCC2)cc1CN1CCOC1=O [Compound 1-102, {3-[4-(Cyclohexanecarbonyl-amino)-2-(2-oxo-oxazolidin-3-ylmethyl)-phenoxy]-4-methoxy-phenyl}-acetic acid] | – | < 0.3
COc1ccc(CC(=O)O)cc1Oc1ccc(NC(=O)C(C)C)cc1CN1CCOC1=O [Compound 1-103, {3-[4-Isobutyrylamino-2-(2-oxo-oxazolidin-3-ylmethyl)-phenoxy]-4-methoxy-phenyl}-acetic acid] | – | < 0.3
COc1ccc(CC(=O)O)cc1Oc1ccc(NC(=O)c2ccncc2)cc1CN1CCOC1=O [Compound 1-104, (4-Methoxy-3-{2-(2-oxo-oxazolidin-3-ylmethyl)-4-[(pyridine-4-carbonyl)-amino]-phenoxy}-phenyl)-acetic acid] | – | < 0.3
COc1ccc(CC(=O)O)cc1Oc1ccc(NC(=O)c2cccnc2)cc1CN1CCOC1=O [Compound 1-105, (4-Methoxy-3-{2-(2-oxo-oxazolidin-3-ylmethyl)-4-[(pyridine-3-carbonyl)-amino]-phenoxy}-phenyl)-acetic acid] | – | > 1
COc1ccc(CC(=O)O)cc1Oc1ccc(NC(=O)COc2ccccc2)cc1CN1CCOC1=O [Compound 1-106, {4-Methoxy-3-[2-(2-oxo-oxazolidin-3-ylmethyl)-4-(2-phenoxy-acetylamino)-phenoxy]-phenyl}-acetic acid] | – | < 0.3
COCC(=O)Nc1ccc(Oc2cc(CC(=O)O)ccc2OC)c(CN2CCOC2=O)c1 [Compound 1-107, {4-Methoxy-3-[4-(2-methoxy-acetylamino)-2-(2-oxo-oxazolidin-3-ylmethyl)-phenoxy]-phenyl}-acetic acid] | – | 0.3 to 1
COc1ccc(CC(=O)O)cc1Oc1ccc(NC(=O)NCc2ccccc2)cc1CN1CCOC1=O [Compound 1-108, {3-[4-(3-Benzyl-ureido)-2-(2-oxo-oxazolidin-3-ylmethyl)-phenoxy]-4-methoxy-phenyl}-acetic acid] | – | < 0.3
